This is an account of results in US9708312B2, “Dihydropyrimidinoisoquinolinones and pharmaceutical compositions thereof for the treatment of inflammatory disorders (GPR84 antagonists)” (GALAPAGOS NV, priority 2012, dated 2017).

This assay addresses T1, GPR84 (Homo sapiens, UniProt Q9NQS5).
T1 construct: expressed in transfected cells
The assay can be described thus: GPR84 [35S]GTPγS binding assay, HEPES buffer. In kind it is biochemical. The note with it: 3,3′ di indolylmethane at EC80, membranes from stable cell line over expressing GPR84. The method, then:
1.1. Cell Based Assay: GTp-γ S Binding Assay.
The following assay can be used for determination of GPR84 activation.
The assay is performed in a 96 well plate where the following reagents are added. […] In a last step, 30 μL of a mixture consisting of membranes-GTPγS-SpA beads is added [mixture consists of 20 μg/well membranes derived from stable cell line over expressing GPR84 (membranes are pre-incubated with 0.1 μM GDP for 15 min at 4° C.), 0.1 nM [^35S]GTPγS (Perkin Elmer, NEG030) and 0.5 mg/well PVT-WGA SpA beads (Perkin Elmer, RPNQ0001)]. All components are diluted in assay buffer containing 20 mM HEPES pH 7.4; 5 mM MgCl2; 250 mM NaCl; 0.05% BSA; 75 ug/mL saponin Reactions are incubated for 90 min at room temperature followed by centrifugation at 2000 rpm during 15 min. Plates are read on a Topcount reader (Perkin Elmer) immediately after centrifugation (readout time, 1 min/well).
On the technique in general: Binding of GTPγS marks nucleotide exchange on a G protein.

Structures are written as SMILES.

One may read the IC50 as the concentration needed to halve the response being measured.

T1 sequence (Q9NQS5 whole entry): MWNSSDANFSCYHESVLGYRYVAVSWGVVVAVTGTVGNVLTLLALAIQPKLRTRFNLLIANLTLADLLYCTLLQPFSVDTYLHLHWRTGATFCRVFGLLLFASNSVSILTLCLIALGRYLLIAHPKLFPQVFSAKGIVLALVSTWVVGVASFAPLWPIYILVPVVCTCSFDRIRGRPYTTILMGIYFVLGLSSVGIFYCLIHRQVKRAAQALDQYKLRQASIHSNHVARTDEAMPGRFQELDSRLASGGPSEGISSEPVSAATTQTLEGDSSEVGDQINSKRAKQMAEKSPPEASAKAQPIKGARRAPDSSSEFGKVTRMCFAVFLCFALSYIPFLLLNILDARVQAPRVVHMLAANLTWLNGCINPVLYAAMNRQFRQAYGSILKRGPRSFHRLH

Compound `O=c1nc(OCC2COc3ncccc3O2)cc2n1CCc1cc(C#CCNc3ccccc3)ccc1-2` (stereo not shown) [compound 194, 2-(2,3-dihydro-[1,4]dioxino[2,3-b]pyridin-2-ylmethoxy)-9-(3-phenylamino-prop-1-ynyl)-6,7-dihydro-pyrimido[6,1-a]isoquinolin-4-one] yielded an IC50 of 0.01 to 100 nM.
The value for `O=c1nc(OCC2CCCO2)cc2n1CCc1cc(OCCOc3ccc(Cl)cc3)ccc1-2` (stereo not shown) [compound 45, 9-[2-(4-chloro-phenoxy)-ethoxy]-2-(tetrahydro-furan-2-ylmethoxy)-6,7-dihydro-pyrimido[6,1-a]isoquinolin-4-one] was 0.01 to 100 nM; that for `CC(C)(C)c1nc(COc2ccc3c(c2)CCn2c-3cc(OCC3COc4ncccc4O3)nc2=O)no1` (stereo not shown) [compound 158, 9-(5-tert-Butyl-[1,2,4]oxadiazol-3-ylmethoxy)-2-(2,3-dihydro-[1,4]dioxino[2,3-b]pyridin-2-ylmethoxy)-6,7-dihydro-pyrimido[6,1-a]isoquinolin-4-one] was 0.01 to 100 nM; that for `CC(C)N(C)C(=O)COc1ccc2c(c1)CCn1c-2cc(OCC2COc3ccccc3O2)nc1=O` (stereo not shown) [compound 67, 2-[2-(2,3-Dihydro-benzo[1,4]dioxin-2-ylmethoxy)-4-oxo-6,7-dihydro-4H-pyrimido[6,1-a]isoquinolin-9-yloxy]-N-isopropyl-N-methyl-acetamide] was 0.01 to 100 nM.
The value for `O=c1nc(OCC2CCCO2)cc2n1CCc1cc(OCc3cccc(-c4ccoc4)n3)ccc1-2` (stereo not shown) [compound 56, 9-(6-furan-3-yl-pyridin-2-ylmethoxy)-2-(tetrahydro-furan-2-ylmethoxy)-6,7-dihydro-pyrimido[6,1-a]isoquinolin-4-one] was 0.01 to 100 nM; that for `CC(C)(Oc1ccc2c(c1)CCn1c-2cc(OCC2COc3ccccc3O2)nc1=O)C(=O)N1CCOCC1` (stereo not shown) [compound 50, 2-(2,3-dihydro-benzo[1,4]dioxin-2-ylmethoxy)-9-(1,1-dimethyl-2-morpholin-4-yl-2-oxo-ethoxy)-6,7-dihydro-pyrimido[6,1-a]isoquinolin-4-one] was 500 to 1000 nM.
With `COc1ccccc1OCCOc1ccc2c(c1)CCn1c-2cc(OCC2CCCO2)nc1=O` (stereo not shown) [compound 40, 9-[2-(2-methoxy-phenoxy)-ethoxy]-2-(tetrahydro-furan-2-ylmethoxy)-6,7-dihydro-pyrimido[6,1-a]isoquinolin-4-one], the IC50 lay within 0.01 to 100 nM.
In the case of `N#Cc1cccc(COc2ccc3c(c2)CCn2c-3cc(OCC3CCCO3)nc2=O)c1` (stereo not shown) [compound 19, 3-[4-oxo-2-(tetrahydro-furan-2-ylmethoxy)-6,7-dihydro-4H-pyrimido[6,1-a]isoquinolin-9-yloxymethyl]-benzonitrile] it was 100 to 500 nM; in that of `O=c1nc(OCC2COc3ncccc3O2)cc2n1CCc1cc(CN3CCOCC3)ccc1-2` (stereo not shown) [compound 150, 2-(2,3-dihydro-[1,4]dioxino[2,3-b]pyridin-2-ylmethoxy)-9-morpholin-4-ylmethyl-6,7-dihydro-pyrimido[6,1-a]isoquinolin-4-one], 0.01 to 100 nM; in that of `CCN(CC)C(=O)COc1ccc2c(c1)CCn1c-2cc(OCC2COc3ccccc3O2)nc1=O` (stereo not shown) [compound 66, 2-[2-(2,3-dihydro-benzo[1,4]dioxin-2-ylmethoxy)-4-oxo-6,7-dihydro-4H-pyrimido[6,1-a]isoquinolin-9-yloxy]-N,N-diethyl-acetamide], 100 to 500 nM.
The value for `CCCCNCC#Cc1ccc2c(c1)CCn1c-2cc(OCC2COc3ncccc3O2)nc1=O` (stereo not shown) [compound 191, 9-(3-butylamino-prop-1-ynyl)-2-(2,3-dihydro-[1,4]dioxino[2,3-b]pyridin-2-ylmethoxy)-6,7-dihydro-pyrimido[6,1-a]isoquinolin-4-one] was 100 to 500 nM; that for `O=C(NC1CCOCC1)c1ccc2c(c1)CCn1c-2cc(OCC2COc3ncccc3O2)nc1=O` (stereo not shown) [compound 195, 2-(2,3-dihydro-[1,4]dioxino[2,3-b]pyridin-2-ylmethoxy)-4-oxo-6,7-dihydro-4H-pyrimido[6,1-a]isoquinoline-9-carboxylic acid (tetrahydro-pyran-4-yl)-amide] was 100 to 500 nM.
The value for `O=C(COc1ccc2c(c1)CCn1c-2cc(OCC2COc3ccccc3O2)nc1=O)NCc1ccccc1` (stereo not shown) [compound 78, N-benzyl-2-[2-(2,3-dihydro-benzo[1,4]dioxin-2-ylmethoxy)-4-oxo-6,7-dihydro-4H-pyrimido[6,1-a]isoquinolin-9-yloxy]-acetamide] was 0.01 to 100 nM.
Consider `CCOC(=O)c1ccc(COc2ccc3c(c2)CCn2c-3cc(OCC3COc4ccccc4O3)nc2=O)o1` (stereo not shown) [compound 85, 5-[2-(2,3-dihydro-benzo[1,4]dioxin-2-ylmethoxy)-4-oxo-6,7-dihydro-4H-pyrimido[6,1-a]isoquinolin-9-yloxymethyl]-furan-2-carboxylic acid ethyl ester], for which the IC50 was in the range of 0.01 to 100 nM.
In the case of `O=c1nc(OCC2CCCO2)cc2n1CCc1cc(OCc3noc(-c4ccccc4)n3)ccc1-2` (stereo not shown) [compound 88, 9-(5-phenyl-[1,2,4]oxadiazol-3-ylmethoxy)-2-(tetrahydro-furan-2-ylmethoxy)-6,7-dihydro-pyrimido[6,1-a]isoquinolin-4-one] it was 0.01 to 100 nM; in that of `O=c1nc(OCC2COc3ccccc3O2)cc2n1CCc1cc(OCCN3CCOCC3)ccc1-2` (stereo not shown) [compound 71, 2-(2,3-dihydro-benzo[1,4]dioxin-2-ylmethoxy)-9-(2-morpholin-4-yl-ethoxy)-6,7-dihydro-pyrimido[6,1-a]isoquinolin-4-one], 0.01 to 100 nM.
The value for `CN1CCCC1CCOc1ccc2c(c1)CCn1c-2cc(OCC2COc3ncccc3O2)nc1=O` (stereo not shown) [compound 92, 2-(2,3-dihydro-[1,4]dioxino[2,3-b]pyridin-2-ylmethoxy)-9-[2-(1-methyl-pyrrolidin-2-yl)-ethoxy]-6,7-dihydro-pyrimido[6,1-a]isoquinolin-4-one] was 100 to 500 nM; that for `N#Cc1ccccc1-c1ccc2c(c1)CCn1c-2cc(OCC2CCCO2)nc1=O` (stereo not shown) [compound 107, 2-[4-oxo-2-(tetrahydro-furan-2-ylmethoxy)-6,7-dihydro-4H-pyrimido[6,1-a]isoquinolin-9-yl]-benzonitrile] was 500 to 1000 nM.
The value for `O=C(COc1ccc2c(c1)CCn1c-2cc(OCC2CCCO2)nc1=O)Nc1ccccc1` (stereo not shown) [compound 63, 2-[4-oxo-2-(tetrahydro-furan-2-ylmethoxy)-6,7-dihydro-4H-pyrimido[6,1-a]isoquinolin-9-yloxy]-N-phenyl-acetamide] was 0.01 to 100 nM.
Compound `COc1nccc(-c2ccc3c(c2)CCn2c-3cc(OCC3COc4ncccc4O3)nc2=O)c1Cl` (stereo not shown) [compound 160, 9-(3-chloro-2-methoxy-pyridin-4-yl)-2-(2,3-dihydro-[1,4]dioxino[2,3-b]pyridin-2-ylmethoxy)-6,7-dihydro-pyrimido[6,1-a]isoquinolin-4-one] had an IC50 of 0.01 to 100 nM.
In the case of `O=c1nc(OCC2COc3ccccc3O2)cc2n1CCc1cc(OCC3COc4ccccc4O3)ccc1-2` (stereo not shown) [compound 30, 2,9-bis-(2,3-dihydro-benzo[1,4]dioxin-2-ylmethoxy)-6,7-dihydro-pyrimido[6,1-a]isoquinolin-4-one] it was 0.01 to 100 nM.
In the case of `CN(C)CC#Cc1ccc2c(c1)CCn1c-2cc(OCC2COc3ncccc3O2)nc1=O` (stereo not shown) [compound 172, 2-(2,3-dihydro-[1,4]dioxino[2,3-b]pyridin-2-ylmethoxy)-9-(3-dimethylamino-prop-1-ynyl)-6,7-dihydro-pyrimido[6,1-a]isoquinolin-4-one] it was 0.01 to 100 nM.
